Patent publication US8426345B2, “Method of drug design” (Alchemia Limited, priority 2005, dated 2013)

Biological target: T1, Human SST5 somatostatin receptor (Homo sapiens, UniProt P35346)
T1 construct: expressed in transfected cells; host or cells: HEK-293 EBNA cells (membranes)
Test: Filter plate radio-ligand binding assay for SST5 receptor ([125I]SST-14 displacement)
Settings: 2P library; for % SST5 radio-ligand binding displaced at conc 50: compound conc 50 μM; for % SST5 radio-ligand binding displaced at conc 250: compound conc 250 μM; for % SST5 radio-ligand binding displaced at conc 500: compound conc 500 μM

T1 sequence (P35346 whole entry): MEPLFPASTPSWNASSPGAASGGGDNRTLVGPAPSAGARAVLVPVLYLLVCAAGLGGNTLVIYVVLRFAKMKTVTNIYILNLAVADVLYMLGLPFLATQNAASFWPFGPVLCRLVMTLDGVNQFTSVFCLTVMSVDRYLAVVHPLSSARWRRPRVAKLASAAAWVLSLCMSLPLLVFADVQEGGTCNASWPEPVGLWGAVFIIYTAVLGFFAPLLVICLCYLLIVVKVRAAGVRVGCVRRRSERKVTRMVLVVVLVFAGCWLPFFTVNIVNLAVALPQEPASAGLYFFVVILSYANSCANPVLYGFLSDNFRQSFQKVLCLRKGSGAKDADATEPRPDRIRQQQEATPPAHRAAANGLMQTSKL

| SMILES | % SST5 radio-ligand binding displaced at conc 50 | % SST5 radio-ligand binding displaced at conc 250 | % SST5 radio-ligand binding displaced at conc 500 |
| --- | --- | --- | --- |
| CO[C@H]1[C@H](O)[C@@H](COCc2ccc3ccccc3c2)O[C@@H](SC)[C@@H]1NC(=O)CCCN [Compound 23] | − (% SST5 radio-ligand binding displaced at cone (μM) −<40%) | − (% SST5 radio-ligand binding displaced at cone (μM) −<40%) | + (% SST5 radio-ligand binding displaced at cone (μM) 60>+>40%) |
| COC[C@H]1O[C@@H](SC)[C@H](NC(=O)CCCN)[C@@H](OCc2ccc(Cl)cc2)[C@@H]1O [Compound 24] | − (% SST5 radio-ligand binding displaced at cone (μM) −<40%) | − (% SST5 radio-ligand binding displaced at cone (μM) −<40%) | − (% SST5 radio-ligand binding displaced at cone (μM) −<40%) |
| COC[C@H]1O[C@@H](SC)[C@H](NC(=O)CCCN)[C@@H](OCc2ccc3ccccc3c2)[C@@H]1O [Compound 25] | − (% SST5 radio-ligand binding displaced at cone (μM) −<40%) | − (% SST5 radio-ligand binding displaced at cone (μM) −<40%) | + (% SST5 radio-ligand binding displaced at cone (μM) 60>+>40%) |
| COC[C@H]1O[C@@H](OCc2ccc(Cl)cc2)[C@H](NC(=O)CCCN)[C@@H](OC)[C@@H]1O [Compound 27] | − (% SST5 radio-ligand binding displaced at cone (μM) −<40%) | − (% SST5 radio-ligand binding displaced at cone (μM) −<40%) | − (% SST5 radio-ligand binding displaced at cone (μM) −<40%) |
| COC[C@H]1O[C@@H](OCc2ccc3ccccc3c2)[C@H](NC(=O)CCCN)[C@@H](OC)[C@@H]1O [Compound 28] | − (% SST5 radio-ligand binding displaced at cone (μM) −<40%) | − (% SST5 radio-ligand binding displaced at cone (μM) −<40%) | ++ (% SST5 radio-ligand binding displaced at conc (μM) >60%) |
| COC1C(O)C(COCc2ccc(Cl)cc2)OC(SC)C1NC(=O)CN (stereo not drawn) [Compound 29] | − (% SST5 radio-ligand binding displaced at cone (μM) −<40%) | − (% SST5 radio-ligand binding displaced at cone (μM) −<40%) | − (% SST5 radio-ligand binding displaced at cone (μM) −<40%) |
| COC1C(O)C(COCc2ccc3ccccc3c2)OC(SC)C1NC(=O)CN (stereo not drawn) [Compound 30] | − (% SST5 radio-ligand binding displaced at cone (μM) −<40%) | − (% SST5 radio-ligand binding displaced at cone (μM) −<40%) | + (% SST5 radio-ligand binding displaced at cone (μM) 60>+>40%) |
| COCC1OC(SC)C(NC(=O)CN)C(OCc2ccc(Cl)cc2)C1O (stereo not drawn) [Compound 31] | − (% SST5 radio-ligand binding displaced at cone (μM) −<40%) | − (% SST5 radio-ligand binding displaced at cone (μM) −<40%) | + (% SST5 radio-ligand binding displaced at cone (μM) 60>+>40%) |
| COCC1OC(SC)C(NC(=O)CN)C(OCc2ccc3ccccc3c2)C1O (stereo not drawn) [Compound 32] | − (% SST5 radio-ligand binding displaced at cone (μM) −<40%) | − (% SST5 radio-ligand binding displaced at cone (μM) −<40%) | − (% SST5 radio-ligand binding displaced at cone (μM) −<40%) |
| COC[C@H]1O[C@H](OCc2ccc(Cl)cc2)[C@H](NC(=O)CN)[C@H](OC)[C@@H]1O [Compound 33] | − (% SST5 radio-ligand binding displaced at cone (μM) −<40%) | − (% SST5 radio-ligand binding displaced at cone (μM) −<40%) | − (% SST5 radio-ligand binding displaced at cone (μM) −<40%) |
| COC[C@H]1O[C@H](OCc2ccc3ccccc3c2)[C@H](NC(=O)CN)[C@H](OC)[C@@H]1O [Compound 34] | − (% SST5 radio-ligand binding displaced at cone (μM) −<40%) | − (% SST5 radio-ligand binding displaced at cone (μM) −<40%) | − (% SST5 radio-ligand binding displaced at cone (μM) −<40%) |
| COC[C@H]1O[C@@H](OCc2ccc(Cl)cc2)[C@H](NC(=O)CN)[C@H](OC)[C@@H]1O [Compound 35] | − (% SST5 radio-ligand binding displaced at cone (μM) −<40%) | − (% SST5 radio-ligand binding displaced at cone (μM) −<40%) | − (% SST5 radio-ligand binding displaced at cone (μM) −<40%) |
| COC[C@H]1O[C@@H](OCc2ccc3ccccc3c2)[C@H](NC(=O)CN)[C@H](OC)[C@@H]1O [Compound 36] | − (% SST5 radio-ligand binding displaced at cone (μM) −<40%) | − (% SST5 radio-ligand binding displaced at cone (μM) −<40%) | + (% SST5 radio-ligand binding displaced at cone (μM) 60>+>40%) |
| COC[C@H]1O[C@@H](SC)[C@H](NC(=O)CCN)[C@H](OCc2ccc(Cl)cc2)[C@@H]1O [Compound 37] | − (% SST5 radio-ligand binding displaced at cone (μM) −<40%) | − (% SST5 radio-ligand binding displaced at cone (μM) −<40%) | − (% SST5 radio-ligand binding displaced at cone (μM) −<40%) |
| COC[C@H]1O[C@H](OCc2ccc(Cl)cc2)[C@H](NC(=O)CCN)[C@H](OC)[C@@H]1O [Compound 38] | − (% SST5 radio-ligand binding displaced at cone (μM) −<40%) | + (% SST5 radio-ligand binding displaced at cone (μM) 60>+>40%) | ++ (% SST5 radio-ligand binding displaced at conc (μM) >60%) |
| COC[C@H]1O[C@@H](OCc2ccc(Cl)cc2)[C@H](NC(=O)CCN)[C@H](OC)[C@@H]1O [Compound 39] | − (% SST5 radio-ligand binding displaced at cone (μM) −<40%) | − (% SST5 radio-ligand binding displaced at cone (μM) −<40%) | ++ (% SST5 radio-ligand binding displaced at conc (μM) >60%) |
| COC[C@H]1O[C@@H](OCc2ccc3ccccc3c2)[C@H](NC(=O)CCN)[C@H](OC)[C@@H]1O [Compound 40] | − (% SST5 radio-ligand binding displaced at cone (μM) −<40%) | ++ (% SST5 radio-ligand binding displaced at conc (μM) >60%) | ++ (% SST5 radio-ligand binding displaced at conc (μM) >60%) |
| CO[C@@H]1[C@H](O)[C@@H](COCc2ccc(Cl)cc2)O[C@@H](SC)[C@@H]1NC(=O)CCCN [Compound 41] | − (% SST5 radio-ligand binding displaced at cone (μM) −<40%) | − (% SST5 radio-ligand binding displaced at cone (μM) −<40%) | − (% SST5 radio-ligand binding displaced at cone (μM) −<40%) |
